Experimental findings from US11111242B2, “Pyrrolo[2,3-d]pyrimidinyl, pyrrolo[2,3-b]pyrazinyl and pyrrolo[2,3-d]pyridinyl acrylamides” (Pfizer Inc., priority 2013, dated 2021) are described below.

Assay [1] has as its system IL-15 induced STAT5 phosphorylation in Human Whole Blood (total lymphocytes). Kind of assay: HWB IL-15 Induced STAT5 Phosphorylation Assay. The assay is classed as cell-based. The following applies: Lymphocyte, IL-15 stimulated, read-out: HWB-IL15-pSTAT5 IC50.
The subject of assay [2] is IL-15 induced P-STAT5 in human PBMC (total lymphocytes). The assay can be described thus: PBMC IL-15 Induced P-STAT5. The assay is classed as cell-based. The following applies: IL-15 stimulated, read-out: PBMC IL15-pSTAT5 IC50. The method, boiled down: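 Thawed human PBMC in RPMI, preincubated 30 min at 37 °C, then IL-15 stimulated. Cells methanol-permeabilized (90%, on ice 20 min) and stained for phospho-STAT5. Read by flow cytometry, gated on total lymphocytes.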

Like-named read-outs stand apart in the source and are kept apart here.

As to `C=CC(=O)N1CCC(Nc2cnc3[nH]cc(C(=O)NC4CCC(F)(F)C4)c3n2)CC1` (stereo not shown) [Example 259, 2-[(1-acryloylpiperidin-4-yl)amino]-N-(3,3-difluorocyclopentyl)-5H-pyrrolo[2,3-b]pyrazine-7-carboxamide], the IC50 is 668 nM in assay [1] and 117 nM in assay [2].
In the same order, the values of `C=CC(=O)N1CCC(Nc2cnc3[nH]cc(C(=O)NCCC#N)c3n2)CC1` [Example 261, 2-[(1-acryloylpiperidin-4-yl)amino]-N-(2-cyanoethyl)-5H-pyrrolo[2,3-b]pyrazine-7-carboxamide] are 215 nM and 214 nM.
For the compound `C=CC(=O)N1CCC(Nc2cnc3[nH]cc(C(=O)N[C@H](CC)CC#N)c3n2)CC1` [Example 263, 2-[(1-acryloylpiperidin-4-yl)amino]-N-[(2R)-1-cyanobutan-2-yl]-5H-pyrrolo[2,3-b]pyrazine-7-carboxamide], the IC50 in assay [1] stood at 431 nM; in assay [2], 74.3 nM.
The matching figures for `C=CC(=O)N1CCC(Nc2cnc3[nH]cc(C(=O)NC(C)(C)C)c3n2)CC1` [Example 266, 2-[(1-acryloylpiperidin-4-yl)amino]-N-tert-butyl-5H-pyrrolo[2,3-b]pyrazine-7-carboxamide]: 386 nM and 71 nM.
In the same order, the values of `C=CC(=O)N1CCC(Nc2cnc3[nH]cc(C(=O)N[C@@H](C)CCC)c3n2)CC1` [Example 267, 2-[(1-acryloylpiperidin-4-yl)amino]-N-[(2S)-pentan-2-yl]-5H-pyrrolo[2,3-b]pyrazine-7-carboxamide] are 242 nM and 36 nM.
Turning to `C=CC(=O)N1CCC(Nc2cnc3[nH]cc(C(=O)N[C@H](C)COC)c3n2)CC1` [Example 268, 2-[(1-acryloylpiperidin-4-yl)amino]-N-[(2R)-1-methoxypropan-2-yl]-5H-pyrrolo[2,3-b]pyrazine-7-carboxamide], the IC50 amounted to 263 nM in assay [1] and 43.4 nM in assay [2] (Homo sapiens, PBMC).
`C=CC(=O)N1CCC(Nc2cnc3[nH]cc(C(=O)NCCCC)c3n2)CC1` [Example 269, 2-[(1-acryloylpiperidin-4-yl)amino]-N-butyl-5H-pyrrolo[2,3-b]pyrazine-7-carboxamide]: the IC50 was found to be 364 nM in assay [1] and 47.9 nM in assay [2].
In the case of `C=CC(=O)N1CCC(Nc2cnc3[nH]cc(C(=O)NCC4CCCC4)c3n2)CC1` [Example 270, 2-[(1-acryloylpiperidin-4-yl)amino]-N-(cyclopentylmethyl)-5H-pyrrolo[2,3-b]pyrazine-7-carboxamide], the IC50 in assay [1] is 1220 nM; in assay [2] (Homo sapiens, PBMC), 53.6 nM.
With `C=CC(=O)N1CCC(Nc2cnc3[nH]cc(C(=O)NCC(C)(C)C)c3n2)CC1` [Example 271, 2-[(1-acryloylpiperidin-4-yl)amino]-N-(2,2-dimethylpropyl)-5H-pyrrolo[2,3-b]pyrazine-7-carboxamide], the IC50 turned out to be 790 nM in assay [1] and 135 nM in assay [2] (Homo sapiens, PBMC).
In the same order, the values of `C=CC(=O)N1CCC(Nc2cnc3[nH]cc(C(=O)NCC(C)C)c3n2)CC1` [Example 272, 2-[(1-acryloylpiperidin-4-yl)amino]-N-(2-methylpropyl)-5H-pyrrolo[2,3-b]pyrazine-7-carboxamide] are 259 nM and 72.3 nM.
`C=CC(=O)N1CCC(Nc2cnc3[nH]cc(C(=O)NCC(F)(F)F)c3n2)CC1` [Example 273, 2-[(1-acryloylpiperidin-4-yl)amino]-N-(2,2,2-trifluoroethyl)-5H-pyrrolo[2,3-b]pyrazine-7-carboxamide]: the IC50 came to 214 nM in assay [1] and 56.7 nM in assay [2].
The matching figures for `C=CC(=O)N1CCC(Nc2cnc3[nH]cc(C(=O)N[C@H](C)CCC)c3n2)CC1` [Example 274, 2-[(1-acryloylpiperidin-4-yl)amino]-N-[(2R)-pentan-2-yl]-5H-pyrrolo[2,3-b]pyrazine-7-carboxamide]: 476 nM and 57.9 nM.
In the same order, the values of `C=CC(=O)N1CCC(Nc2cnc3[nH]cc(C(=O)NCCOC)c3n2)CC1` [Example 275, 2-[(1-acryloylpiperidin-4-yl)amino]-N-(2-methoxyethyl)-5H-pyrrolo[2,3-b]pyrazine-7-carboxamide] are 389 nM and 149 nM.
Turning to `C=CC(=O)N1CCC(Nc2cnc3[nH]cc(C(=O)NC(C)(C)CC)c3n2)CC1` [Example 276, 2-[(1-acryloylpiperidin-4-yl)amino]-N-(2-methylbutan-2-yl)-5H-pyrrolo[2,3-b]pyrazine-7-carboxamide], the IC50 in assay [1] was determined as 487 nM; in assay [2] it was 57.8 nM.
On to `C=CC(=O)N1CCC(Nc2cnc3[nH]cc(C(=O)N[C@@H](C)COC)c3n2)CC1` [Example 277, 2-[(1-acryloylpiperidin-4-yl)amino]-N-[(2S)-1-methoxypropan-2-yl]-5H-pyrrolo[2,3-b]pyrazine-7-carboxamide], for which the IC50 worked out at 83.2 nM in assay [1] and 103 nM in assay [2] (Homo sapiens, PBMC).
Take `C=CC(=O)N1CCC(Nc2cnc3[nH]cc(C(=O)NC4CCCCC4)c3n2)CC1` [Example 278, 2-[(1-acryloylpiperidin-4-yl)amino]-N-cyclohexyl-5H-pyrrolo[2,3-b]pyrazine-7-carboxamide]: the IC50 is 362 nM in assay [1] and 57.4 nM in assay [2].
In the same order, the values of `C=CC(=O)N1CCC(Nc2cnc3[nH]cc(C(=O)NC4CCC4)c3n2)CC1` [Example 280, 2-[(1-acryloylpiperidin-4-yl)amino]-N-cyclobutyl-5H-pyrrolo[2,3-b]pyrazine-7-carboxamide] are 376 nM and 39.4 nM.
In the case of `C=CC(=O)N1CCC(Nc2cnc3[nH]cc(C(=O)NC45CC(C4)C5)c3n2)CC1` [Example 281, 2-[(1-acryloylpiperidin-4-yl)amino]-N-(bicyclo[1.1.1]pent-1-yl)-5H-pyrrolo[2,3-b]pyrazine-7-carboxamide], the concentration for half-maximal inhibition (IC50) in assay [1] was 489 nM; in assay [2] (Homo sapiens, PBMC), 31.5 nM.
`C=CC(=O)N1CCC(Nc2cnc3[nH]cc(C(=O)NCC(C)(F)F)c3n2)CC1` [Example 282, 2-[(1-acryloylpiperidin-4-yl)amino]-N-(2,2-difluoropropyl)-5H-pyrrolo[2,3-b]pyrazine-7-carboxamide]: the IC50 in assay [1] was determined as 432 nM; in assay [2], 71.7 nM.
Regarding `C=CC(=O)N1CCC(Nc2cnc3[nH]cc(C(=O)NC4CCCC4)c3n2)CC1` [Example 283, 2-[(1-acryloylpiperidin-4-yl)amino]-N-cyclopentyl-5H-pyrrolo[2,3-b]pyrazine-7-carboxamide], the IC50 in assay [1] was found to be 700 nM; in assay [2] (Homo sapiens, PBMC), 58.4 nM.
For the compound `C=CC(=O)N1CCC(Nc2cnc3[nH]cc(C(=O)N[C@@H](C)CC)c3n2)CC1` [Example 285, 2-[(1-acryloylpiperidin-4-yl)amino]-N-[(2S)-butan-2-yl]-5H-pyrrolo[2,3-b]pyrazine-7-carboxamide], the IC50 in assay [1] was 373 nM; in assay [2] it was 31.4 nM.
Consider `C=CC(=O)N1CCC(Nc2cnc3[nH]cc(C(=O)NC(C)C4CC4)c3n2)CC1` (stereo not shown) [Example 288, 2-[(1-acryloylpiperidin-4-yl)amino]-N-(1-cyclopropylethyl)-5H-pyrrolo[2,3-b]pyrazine-7-carboxamide], for which the IC50 came out at 358 nM in assay [1] and 44.4 nM in assay [2] (Homo sapiens, PBMC).
For `C=CC(=O)N1CCC(Nc2cnc3[nH]cc(C(=O)N[C@H](C)CC)c3n2)CC1` [Example 289, 2-[(1-acryloylpiperidin-4-yl)amino]-N-[(2R)-butan-2-yl]-5H-pyrrolo[2,3-b]pyrazine-7-carboxamide], the IC50 is 106 nM in assay [1] and 37.5 nM in assay [2].

For orientation: IC50 means the concentration at which inhibition is half-maximal.
